Data as given in patent US20240076285A1, “COMPOUNDS AND COMPOSITIONS FOR TREATING CONDITIONS ASSOCIATED WITH STING ACTIVITY” (IFM Due, Inc., priority 2020, published 2024).

Molecular target: T1, hSTING (Homo sapiens, UniProt Q86WV6, G230A/H232R/R293Q/R71H)
T1 construct: host or cells: THP1-Dual KO-IFNAR2 cells
Test: STING reporter assay in THP1-Dual KO-IFNAR2 cells (2'3'cGAMP stimulation, luciferase reporter)
Assay type: cell-based
Conditions: 15 μM 2'3'cGAMP, 24 h
Experimental: STING pathway activation by the compounds described herein was measured using THP1-Dual™ cells (KO-IFNAR2).
THP1-Dual™ KO-IFNAR2 Cells (obtained from invivogen) were maintained in RPMI, 10% FCS, 5 ml P/S, 2 mM L-glut, 10 mM Hepes, and 1 mM sodium pyruvate. Compounds were spotted in empty 384 well tissue culture plates (Greiner 781182) by Echo for a final concentration of 0.0017-100 μM. Cells were plated into the TC plates at 40 μL per well, 2×10E6 cells/mL. For activation with STING ligand, 2′3′cGAMP (MW 718.38, obtained from Invivogen), was prepared in Optimem media.
The following solutions were prepared for each 1×384 plate: • Solution A: 2 mL Optimem with one of the following stimuli: • 60 μL of 10 mM 2′3′cGAMP→150 μM stock • Solution B: 2 mL Optimem with 60 μL Lipofectamine 2000→Incubate 5 min at RT
2 mL of solution A and 2 ml Solution B was mixed and incubated for 20 min at room temperature (RT). 20 μL of transfection solution (A+B) was added on top of the plated cells, with a final 2′3′cGAMP concentration of 15 μM. The plates were then centrifuged immediately at 340 g for 1 minute, after which they were incubated at 37° C., 5% CO2, >98% humidity for 24 h. Luciferase reporter activity was then measured. EC50 values were calculated by using standard methods known in the art.
Luciferase reporter assay: 10 μL of supernatant from the assay was transferred to white 384-plate with flat bottom and squared wells. One pouch of QUANTI-Luc™ Plus was dissolved in 25 mL of water. 100 μL of QLC Stabilizer per 25 mL of QUANTI-Luc™ Plus solution was added. 50 μL of QUANTI-Luc™ Plus/QLC solution per well was then added. Luminescence was measured on a Platereader (e.g., Spectramax I3X (Molecular Devices GF3637001)).
Luciferase reporter activity was then measured. EC50 values were calculated by using standard methods known in the art.

T1 sequence (Q86WV6 whole entry R71H/G230A/H232R/R293Q): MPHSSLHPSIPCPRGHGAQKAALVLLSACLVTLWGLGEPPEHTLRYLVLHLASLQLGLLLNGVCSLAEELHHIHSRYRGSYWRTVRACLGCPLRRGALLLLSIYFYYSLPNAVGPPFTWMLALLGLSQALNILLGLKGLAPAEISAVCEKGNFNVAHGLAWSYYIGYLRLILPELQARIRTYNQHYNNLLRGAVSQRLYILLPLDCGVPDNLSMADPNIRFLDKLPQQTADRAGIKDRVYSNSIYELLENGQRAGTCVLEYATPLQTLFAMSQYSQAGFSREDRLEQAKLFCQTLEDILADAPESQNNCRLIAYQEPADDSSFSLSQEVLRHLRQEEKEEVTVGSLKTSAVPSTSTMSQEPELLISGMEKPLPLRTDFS

EC50 (class symbols) [nM] | EC50 (numeric bound) [nM] | Compound
40 to 200 | – | N#Cc1cc(Nc2ccc(Cl)c(Cl)c2)cc(Nc2cc(Cl)c3cc[nH]c3c2)n1 [Compound 154, 6-[(4-chloro-1H-indol-6-yl)amino]-4-[(3,4-dichlorophenyl)amino]pyridine-2-carbonitrile]
200 to 1000 | – | N#Cc1cc(Nc2ccc(Cl)c(F)c2)cc(Nc2ccc3cc[nH]c3c2)n1 [Compound 139, 4-[(4-chloro-3-fluorophenyl)amino]-6-[(1H-indol-6-yl)amino]pyridine-2-carbonitrile]
40 to 200 | – | COc1cc(Cl)cc(Nc2cc(C#N)nc(Nc3cc(Cl)c4cc[nH]c4c3)c2)c1 [Compound 185, 6-[(4-chloro-1H-indol-6-yl)amino]-4-[(3-chloro-5-methoxyphenyl)amino]pyridine-2-carbonitrile]
1000 to 5000 | – | CC(C)CN1CCN(c2cc(C#N)nc(Nc3ccc4cc[nH]c4c3)c2)CC1 [Compound 113, 6-[(1H-indol-6-yl)amino]-4-[4-(2-methylpropyl)piperazin-1-yl]pyridine-2-carbonitrile]
40 to 200 | – | N#Cc1cc(Nc2ccc3c(c2)CCC3)cc(Nc2cc(Cl)c3cc[nH]c3c2)n1 [Compound 188, 6-[(4-chloro-1H-indol-6-yl)amino]-4-[(2,3-dihydro-1H-inden-5-yl)amino]pyridine-2-carbonitrile]
1000 to 5000 | – | Cc1nc2cc(Nc3cc(C#N)nc(Nc4ccc5cc[nH]c5c4)c3)ccc2s1 [Compound 107, 6-[(1H-indol-6-yl)amino]-4-[(2-methyl-1,3-benzothiazol-5-yl)amino]pyridine-2-carbonitrile]
200 to 1000 | – | N#Cc1cc(Nc2ccc(F)c(F)c2)cc(Nc2ccc3cc[nH]c3c2)n1 [Compound 116, 4-[(3,4-difluorophenyl)amino]-6-[(1H-indol-6-yl)amino]pyridine-2-carbonitrile]
1000 to 5000 | – | N#Cc1cc(Nc2cncc(Cl)c2)cc(Nc2ccc3cc[nH]c3c2)n1 [Compound 109, 4-[(5-chloropyridin-3-yl)amino]-6-[(1H-indol-6-yl)amino]pyridine-2-carbonitrile]
200 to 1000 | – | N#Cc1cc(N2CCC(C(F)(F)F)CC2)cc(Nc2cc(Cl)c3cc[nH]c3c2)n1 [Compound 147, 6-[(4-chloro-1H-indol-6-yl)amino]-4-[4-(trifluoromethyl)piperidin-1-yl]pyridine-2-carbonitrile]
5000 to 100000 | – | N#Cc1cc(N2CCN(CC(F)(F)F)CC2)cc(Nc2ccc3cc[nH]c3c2)n1 [Compound 120, 6-[(1H-indol-6-yl)amino]-4-[4-(2,2,2-trifluoroethyl)piperazin-1-yl]pyridine-2-carbonitrile]
1000 to 5000 | – | CCc1ccc(Nc2cc(C#N)nc(Nc3ccc4cc[nH]c4c3)c2)cn1 [Compound 111, 4-[(6-ethylpyridin-3-yl)amino]-6-[(1H-indol-6-yl)amino]pyridine-2-carbonitrile]
200 to 1000 | – | N#Cc1cc(Nc2ccc(OC(F)(F)F)nc2)cc(Nc2ccc3cc[nH]c3c2)n1 [Compound 125, 6-[(1H-indol-6-yl)amino]-4-{[6-(trifluoromethoxy)pyridin-3-yl]amino}pyridine-2-carbonitrile]
1000 to 5000 | – | N#Cc1cc(Nc2cncc(F)c2)cc(Nc2ccc3cc[nH]c3c2)n1 [Compound 129, 4-[(5-fluoropyridin-3-yl)amino]-6-[(1H-indol-6-yl)amino]pyridine-2-carbonitrile]
5000 to 100000 | – | N#Cc1cc(N2CCOCC2)cc(Nc2ccc3cc[nH]c3c2)n1 [Compound 114, 6-[(1H-indol-6-yl)amino]-4-(morpholin-4-yl)pyridine-2-carbonitrile]
200 to 1000 | – | N#Cc1cc(Cl)cc(Nc2cc(C#N)nc(Nc3ccc4cc[nH]c4c3)c2)c1 [Compound 135, 4-[(3-chloro-5-cyanophenyl)amino]-6-[(1H-indol-6-yl)amino]pyridine-2-carbonitrile]
200 to 1000 | – | N#Cc1cc(N2CCC(Cc3ccccc3)CC2)cc(Nc2cc(Cl)c3cc[nH]c3c2)n1 [Compound 151, 4-(4-benzylpiperidin-1-yl)-6-[(4-chloro-1H-indol-6-yl)amino]pyridine-2-carbonitrile]
200 to 1000 | – | N#Cc1cc(Nc2cc(F)cc(C(F)(F)F)c2)cc(Nc2cc(Cl)c3cc[nH]c3c2)n1 [Compound 186, 6-[(4-chloro-1H-indol-6-yl)amino]-4-{[3-fluoro-5-(trifluoromethyl)phenyl]amino}pyridine-2-carbonitrile]

EC50 (class symbols) [nM] | EC50 (numeric bound) [nM] | Compound
200 to 1000 | – | CC(C)c1cncc(Nc2cc(C#N)nc(Nc3ccc4cc[nH]c4c3)c2)c1 [Compound 124, 6-[(1H-indol-6-yl)amino]-4-{[5-(propan-2-yl)pyridin-3-yl]amino}pyridine-2-carbonitrile]
200 to 1000 | – | COc1ccc(Nc2cc(C#N)nc(Nc3cc(Cl)c4cc[nH]c4c3)c2)cn1 [Compound 166, 6-[(4-chloro-1H-indol-6-yl)amino]-4-[(6-methoxypyridin-3-yl)amino]pyridine-2-carbonitrile]
200 to 1000 | – | N#Cc1cc(N2CCC(Oc3ccccc3)CC2)cc(Nc2ccc3cc[nH]c3c2)n1 [Compound 119, 6-[(1H-indol-6-yl)amino]-4-(4-phenoxypiperidin-1-yl)pyridine-2-carbonitrile]
– | > 30000 | Cc1ccc(Nc2cc(C#N)nc(Nc3ccc4cc[nH]c4c3)c2)cn1 [Compound 102, 6-[(1H-indol-6-yl)amino]-4-[(6-methylpyridin-3-yl)amino]pyridine-2-carbonitrile]
200 to 1000 | – | CC(C)(C)c1cncc(Nc2cc(C#N)nc(Nc3cc(Cl)c4cc[nH]c4c3)c2)c1 [Compound 163, 4-[(5-tert-butylpyridin-3-yl)amino]-6-[(4-chloro-1H-indol-6-yl)amino]pyridine-2-carbonitrile]
200 to 1000 | – | N#Cc1cc(Nc2ccc(C(F)(F)F)nc2)cc(Nc2cc(Cl)c3cc[nH]c3c2)n1 [Compound 183, 6-[(4-chloro-1H-indol-6-yl)amino]-4-{[6-(trifluoromethyl)pyridin-3-yl]amino}pyridine-2-carbonitrile]
200 to 1000 | – | N#Cc1cc(Nc2ccc3c(c2)OC(F)(F)C(F)(F)O3)cc(Nc2ccc3cc[nH]c3c2)n1 [Compound 143, 6-((1H-indol-6-yl)amino)-4-((2,2,3,3-tetrafluoro-2,3-dihydrobenzo[b][1,4]dioxin-6-yl)amino)picolinonitrile]
200 to 1000 | – | N#Cc1cc(Nc2cc(Cl)cc(Cl)c2)cc(Nc2cc(Cl)c3cc[nH]c3c2)n1 [Compound 164, 6-[(4-chloro-1H-indol-6-yl)amino]-4-[(3,5-dichlorophenyl)amino]pyridine-2-carbonitrile]
200 to 1000 | – | N#Cc1cc(Nc2ccc3cc[nH]c3c2)cc(Nc2ccc3cc[nH]c3c2)n1 [Compound 145]
1000 to 5000 | – | N#Cc1cc(Nc2ccc3c(c2)OCCO3)cc(Nc2ccc3cc[nH]c3c2)n1 [Compound 144, 4-[(2,3-dihydro-1,4-benzodioxin-6-yl)amino]-6-[(1H-indol-6-yl)amino]pyridine-2-carbonitrile]
200 to 1000 | – | N#Cc1cc(Nc2ccc(C(F)(F)F)c(Cl)c2)cc(Nc2cc(Cl)c3cc[nH]c3c2)n1 [Compound 173, 6-[(4-chloro-1H-indol-6-yl)amino]-4-{[3-chloro-4-(trifluoromethyl)phenyl]amino}pyridine-2-carbonitrile]
1000 to 5000 | – | Cc1nn(C)c2ccc(Nc3cc(C#N)nc(Nc4ccc5cc[nH]c5c4)c3)cc12 [Compound 108, 4-[(1,3-dimethyl-1H-indazol-5-yl)amino]-6-[(1H-indol-6-yl)amino]pyridine-2-carbonitrile]
1000 to 5000 | – | CC(C)CN1CCN(c2cc(C#N)nc(Nc3cc(Cl)c4cc[nH]c4c3)c2)CC1 [Compound 157, 6-[(4-chloro-1H-indol-6-yl)amino]-4-[4-(2-methylpropyl)piperazin-1-yl]pyridine-2-carbonitrile]
200 to 1000 | – | N#Cc1cc(Nc2cncc(C(F)(F)F)c2)cc(Nc2ccc3cc[nH]c3c2)n1 [Compound 141, 6-[(1H-indol-6-yl)amino]-4-{[5-(trifluoromethyl)pyridin-3-yl]amino}pyridine-2-carbonitrile]
1000 to 5000 | – | CC(C)(C)c1cncc(Nc2cc(C#N)nc(Nc3ccc4cc[nH]c4c3)c2)c1 [Compound 115, 4-[(5-tert-butylpyridin-3-yl)amino]-6-[(1H-indol-6-yl)amino]pyridine-2-carbonitrile]
200 to 1000 | – | N#Cc1cc(N2CCC(Cc3ccc(F)cc3)CC2)cc(Nc2cc(Cl)c3cc[nH]c3c2)n1 [Compound 149, 6-[(4-chloro-1H-indol-6-yl)amino]-4-{4-[(4-fluorophenyl)methyl]piperidin-1-yl}pyridine-2-carbonitrile]
200 to 1000 | – | N#Cc1cc(Nc2ccc3c(c2)CCC3)cc(Nc2ccc3cc[nH]c3c2)n1 [Compound 142, 4-[(2,3-dihydro-1H-inden-5-yl)amino]-6-[(1H-indol-6-yl)amino]pyridine-2-carbonitrile]
